Values after ≈ are worked out from the molar mass of the structure shown.

14 compounds from patent publication US12011497B2, “Compounds, compositions containing same, and use thereof for promoting hair growth” (Molgenbio Co. Ltd., priority 2018, dated 2024) can be followed below.

The subject of the first test is CD4+ T cells. Description: in vitro T cell activity assay (CTV-stained CD4+ T cell proliferation, flow cytometry). The following applies: B6J mouse spleen CD4+ T cells activated with CD3/CD28 Dynabeads, 72 hours incubation, 0.01-1000 ng/mL, CTV intensity. The format is cell-based. The text has this: The degrees of decreases in immunosuppressive activity of the nine novel compounds were identified by a known in vitro T cell activity assay (J. Immunol. 143:718-726, 1989).
CD4+ T cell division is an indicator of immune response. When CD4+ T cells stained with Cell Trace™ Violet (CTV) proliferate by immune responses, the amount of CTV of each cell decreases, and thus the degrees of immunosuppressive activity were identified using this as an indicator.
Single cells were isolated from spleen of 6- to 8-week-old B6J experimental mice, and CD4+ T cells were isolated using a MagniSort® Mouse CD4 T cell Enrichment Kit (eBioscience). CD4+ T cells were stained with a Cell Trace™ Violet (CTV) Cell Proliferation Kit (Molecular Probes), and FK506 or the nine novel compounds were added thereto in concentrations of 0.01 ng/mL, 0.1 ng/mL, 1 ng/mL, 10 ng/mL, 100 ng/mL, and 1000 ng/mL, respectively, followed by incubation for 72 hours. In order to activate T cells, Dynabeads® Mouse T-Activator CD3/CD28 (Gibco) was used. As a control, inactivated T cells were used. After incubation, CTV intensity was analyzed by flow cytometry.
Table 12 below and FIG. 55 show the degrees of T cell proliferation based on CTV intensities measured using a flow cytometer, indicating the degrees of immunosuppressive activity of FK506 and the nine novel compounds.
On to `CCCC1C=C(C)CC(C)CC(OC)C2OC(O)(CC(=O)N3CCCCC3C(=O)OC(C(C)=CC3CCC(O)C(O)C3)C(C)C(O)CC1=O)C(C)CC2OC` (stereo not drawn) [9-deoxo-31-O-demethyl-36,37-dihydro-FK506], for which the “Immunosuppression IC50” value is listed as 45.87 ng/mL.

On to `C=CCC1/C=C(\C)CC(C)CC(OC)C2OC(O)(C(=O)C(=O)N3CCCCC3C(=O)OC(/C(C)=C/C3CCC(O)C(O)C3)C(C)C(O)CC1=O)C(C)CC2OC` (stereo not drawn) [31-O-demethyl-FK506, reference compound], for which the “Immunosuppression IC50” value was 0.246 ng/mL.

Regarding `CO[C@H]1C[C@@H](C)C/C(C)=C/[C@@H](C)C(=O)C[C@H](O)[C@@H](C)[C@@H](/C(C)=C/[C@@H]2CC[C@@H](O)[C@H](O)C2)OC(=O)[C@@H]2CCCCN2C(=O)C[C@]2(O)O[C@H]1[C@@H](OC)C[C@H]2C` [9-deoxo-31-O-demethyl-FK523], the “Immunosuppression IC50” value was 3378 ng/mL.

As for `CCCC1C=C(C)CC(C)CC(OC)C2OC(O)(CC(=O)N3CCCCC3C(=O)OC(C(C)=CC3CCC(O)C(OC)C3)C(C)C(O)CC1=O)C(C)CC2OC` (stereo not drawn) [9-deoxo-36,37-dihydro-FK506], the “Immunosuppression IC50” value worked out at 14.1 ng/mL.

As for “9-deoxo-prolyl-FK506 [reference compound]”, the “Immunosuppression IC50” value was found to be 268.3 ng/mL.

In the case of `CCC1C=C(C)CC(C)CC(OC)C2OC(O)(CC(=O)N3CCCCC3C(=O)OC(C(C)=CC3CCC(O)C(OC)C3)C(C)C(O)CC1=O)C(C)CC2OC` (stereo not drawn) [9-deoxo-FK520], the “Immunosuppression IC50” value amounted to 24.98 ng/mL.

With `CC[C@@H]1/C=C(\C)C[C@H](C)C[C@H](OC)[C@H]2O[C@@](O)(C(=O)C(=O)N3CCCC[C@H]3C(=O)O[C@H](/C(C)=C/[C@@H]3CC[C@@H](O)[C@H](O)C3)[C@H](C)[C@@H](O)CC1=O)[C@H](C)C[C@@H]2OC` [31-O-demethyl-FK520], the “Immunosuppression IC50” value came to 3.273 ng/mL.

For the compound `COC1CC(C=C(C)C2OC(=O)C3CCCCN3C(=O)CC3(O)OC(C(OC)CC(C)CC(C)=CC(C)C(=O)CC(O)C2C)C(OC)CC3C)CCC1O` (stereo not drawn) [9-deoxo-FK523], the “Immunosuppression IC50” value is 1985 ng/mL.

With `CC[C@@H]1/C=C(\C)C[C@H](C)C[C@H](OC)[C@H]2O[C@@](O)(CC(=O)N3CCCC[C@H]3C(=O)O[C@H](/C(C)=C/[C@@H]3CC[C@@H](O)[C@H](O)C3)[C@H](C)[C@@H](O)CC1=O)[C@H](C)C[C@@H]2OC` [9-deoxo-31-O-demethyl-FK520], the “Immunosuppression IC50” value was determined as 258.1 ng/mL.

Consider 9-deoxo-31-O-demethyl-prolyl-FK506, for which the “Immunosuppression IC50” value was 886.5 ng/mL.

Turning to `C=CC[C@@H]1/C=C(\C)C[C@H](C)C[C@H](OC)[C@H]2O[C@@](O)(CC(=O)N3CCCC[C@H]3C(=O)O[C@H](/C(C)=C/C3CC[C@@H](O)[C@H](OC)C3)[C@H](C)[C@H](O)CC1=O)[C@H](C)C[C@@H]2OC` (stereo partly drawn) [9-deoxo-FK506, reference compound], the “Immunosuppression IC50” value turned out to be 0.513 ng/mL.

In the case of `CCC[C@@H]1/C=C(\C)C[C@H](C)C[C@H](OC)[C@H]2O[C@@](O)(C(=O)C(=O)N3CCCC[C@H]3C(=O)O[C@H](/C(C)=C/[C@@H]3CC[C@@H](O)[C@H](O)C3)[C@H](C)[C@@H](O)CC1=O)[C@H](C)C[C@@H]2OC` [31-O-demethyl-36,37-dihydro-FK506], the “Immunosuppression IC50” value was found to be 1.723 ng/mL.

Turning to `C=CC[C@@H]1/C=C(/C)C[C@H](C)C[C@H](OC)[C@H]2O[C@@](O)(CC(=O)N3CCCC[C@H]3C(=O)O[C@H](/C(C)=C/[C@@H]3CC[C@@H](O)[C@H](O)C3)[C@H](C)[C@@H](O)CC1=O)[C@H](C)C[C@@H]2OC` [9-deoxo-31-O-demethyl-FK506, reference compound], the “Immunosuppression IC50” value came to 15.09 ng/mL.

Staying with this test, now noted: B6J mouse spleen CD4+ T cells activated with CD3/CD28 Dynabeads, 72 hours incubation, 0.01-1000 ng/mL, CTV intensity; read-out: Immunosuppression IC50.
One may read the IC50 as the concentration that inhibits the measured activity by half. With `C=CC[C@@H]1/C=C(\C)C[C@H](C)C[C@H](OC)[C@H]2O[C@@](O)(C(=O)C(=O)N3CCCC[C@H]3C(=O)O[C@H](/C(C)=C/[C@@H]3CC[C@@H](O)[C@H](OC)C3)[C@H](C)[C@@H](O)CC1=O)[C@H](C)C[C@@H]2OC` [FK506, reference compound], the IC50 came out at 0.027 ng/mL (≈ 0.0336 nM).

A further test relates to vibrissae tissue of mice. Description: hair growth-promoting activity in cultured isolated mouse vibrissae. The format is cell-based. The following applies: histology of cultured treated vibrissae, FIG. 58. How it is done: Hair growth-promoting activity of the nine novel compounds of the present invention relative to that of the parent drug (FK506) was evaluated using vibrissae tissue of mice. The mouth and mouth tissue (whisker pad) around the mouth where thick hair grows were peeled off from each of 6- to 8-week-old experimental black mouse (C57BL/6 mouse) and treated with […] for a short time of several seconds. The treated mouth tissue was prepared in a state of being immersed in phosphate-buffered saline (PBS) supplemented with 1% penicillin/streptomycin (P/S) on ice. Surrounding subcutaneous fat tissue and connective tissue were removed using forceps and blades while observing the prepared mouth tissue using a dissecting microscope to expose vibrissae tissue. […] Based on the results, it was confirmed that the composition for promoting hair growth, including at least one of the nine novel compounds of the present invention as an active ingredient, had the effects on promoting hair growth as desired, and thus it was determined that the composition may be effectively used for preventing and treating hair loss.
Regarding `CC[C@@H]1/C=C(\C)C[C@H](C)C[C@H](OC)[C@H]2O[C@@](O)(CC(=O)N3CCCC[C@H]3C(=O)O[C@H](/C(C)=C/[C@@H]3CC[C@@H](O)[C@H](O)C3)[C@H](C)[C@@H](O)CC1=O)[C@H](C)C[C@@H]2OC` [9-deoxo-31-O-demethyl-FK520], the “expression of growth marker (Ki67) of cells compared to an untreated group” value was “overexpressed”.
